Key:
Assay in all cases: KINOMEscan
Format in all cases: binding
Conditions in all cases: 1 μM
EPHA8 = EPHA8 (Homo sapiens, UniProt P29322)
DRAK1 = biological target: T1, DRAK1 (Homo sapiens, UniProt Q9UEE5)
T1 construct: purchased Eurofins DiscoverX Corporation

MEK4 = biological target: T2, MEK4 (Homo sapiens, UniProt P45985)
T2 construct: purchased Eurofins DiscoverX Corporation

[1] = biological target: RSK3(Kin.Dom.2-C-terminal) (Homo sapiens, UniProt Q15349)
PIP5K1A = PIP5K1A (Homo sapiens, UniProt Q99755)
[2] = biological target: T3, JAK2(JH1domain-catalytic) (Homo sapiens, UniProt O60674)
T3 construct: JAK2(JH1domain-catalytic); purchased Eurofins DiscoverX (KINOMEscan)

[3] = biological target: T4, ABL1(F317I)-phosphorylated (Homo sapiens, UniProt P00519, F317I)
T4 construct: purchased Eurofins DiscoverX Corporation

TNIK = biological target: T5, TNIK (Homo sapiens, UniProt Q9UKE5)
T5 construct: purchased Eurofins DiscoverX Corporation

PFPK5(P.falciparum) = PFPK5(P.falciparum) (Plasmodium falciparum, UniProt P61075)
MEK3 = biological target: T6, MEK3 (Homo sapiens, UniProt P46734)
T6 construct: purchased Eurofins DiscoverX Corporation

ROCK2 = ROCK2 (Homo sapiens, UniProt O75116)
LRRK2(G2019S) = biological target: T7, LRRK2(G2019S) (Homo sapiens, UniProt Q5S007, G2019S)
T7 construct: purchased Eurofins DiscoverX Corporation

CLK1 = CLK1 (Homo sapiens, UniProt P49759)
NEK11 = biological target: T8, NEK11 (Homo sapiens, UniProt Q8NG66)
T8 construct: purchased Eurofins DiscoverX Corporation

CSNK1E = biological target: T9, CSNK1E (Homo sapiens, UniProt P49674)
T9 construct: purchased Eurofins DiscoverX Corporation

PIK3CA(H1047Y) = PIK3CA(H1047Y) (Homo sapiens, UniProt P42336, H1047Y)
TESK1 = biological target: T10, TESK1 (Homo sapiens, UniProt Q15569)
T10 construct: purchased Eurofins DiscoverX Corporation

MRCKA = biological target: T11, MRCKA (Homo sapiens, UniProt Q5VT25)
T11 construct: purchased Eurofins DiscoverX Corporation

LATS1 = biological target: T12, LATS1 (Homo sapiens, UniProt O95835)
T12 construct: purchased Eurofins DiscoverX Corporation

BLK = BLK (Homo sapiens, UniProt P51451)
BMPR1B = biological target: T13, BMPR1B (Homo sapiens, UniProt O00238)
T13 construct: purchased Eurofins DiscoverX Corporation (KINOMEscan)

CDK4 = CDK4 (Homo sapiens, UniProt P11802)
CDK9 = CDK9 (Homo sapiens, UniProt P50750)
PKAC-alpha = PKAC-alpha (Homo sapiens, UniProt P17612)
MAP3K3 = biological target: T14, MAP3K3 (Homo sapiens, UniProt Q99759)
T14 construct: purchased Eurofins DiscoverX Corporation

TLK2 = biological target: T15, TLK2 (Homo sapiens, UniProt Q86UE8)
T15 construct: purchased Eurofins DiscoverX Corporation

ADCK3 = ADCK3 (Homo sapiens, UniProt Q8NI60)
SGK3 = SGK3 (Homo sapiens, UniProt Q96BR1)
MEK6 = biological target: T16, MEK6 (Homo sapiens, UniProt P52564)
T16 construct: purchased Eurofins DiscoverX Corporation

NEK7 = NEK7 (Homo sapiens, UniProt Q8TDX7)
PIK4CB = PIK4CB (Homo sapiens, UniProt Q9UBF8)
EGFR(G719S) = EGFR(G719S) (Homo sapiens, UniProt P00533, G719S)
PAK7 = PAK7 (Homo sapiens, UniProt Q9P286)
MAST1 = biological target: T17, MAST1 (Homo sapiens, UniProt Q9Y2H9)
T17 construct: purchased Eurofins DiscoverX Corporation

PKN1 = PKN1 (Homo sapiens, UniProt Q16512)
PFTAIRE2 = PFTAIRE2 (Homo sapiens, UniProt Q96Q40)
CAMK1D = biological target: T18, CAMK1D (Homo sapiens, UniProt Q8IU85)
T18 construct: purchased Eurofins DiscoverX Corporation (KINOMEscan)

SIK = SIK (Homo sapiens, UniProt P57059)
[4] = biological target: T19, ABL1(T315I)-nonphosphorylated (Homo sapiens, UniProt P00519, T315I)
T19 construct: purchased Eurofins DiscoverX Corporation

T6 sequence (P46734 whole entry): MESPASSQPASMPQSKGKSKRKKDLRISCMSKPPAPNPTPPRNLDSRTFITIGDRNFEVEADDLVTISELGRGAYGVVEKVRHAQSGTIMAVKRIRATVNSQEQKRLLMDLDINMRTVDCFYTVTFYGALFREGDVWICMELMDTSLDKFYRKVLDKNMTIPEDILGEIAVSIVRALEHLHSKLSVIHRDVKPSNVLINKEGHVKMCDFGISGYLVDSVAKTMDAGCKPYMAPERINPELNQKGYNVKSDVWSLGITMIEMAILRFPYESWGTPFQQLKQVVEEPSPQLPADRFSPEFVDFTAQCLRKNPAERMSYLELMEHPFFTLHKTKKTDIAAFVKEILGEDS
T5 sequence (Q9UKE5 whole entry): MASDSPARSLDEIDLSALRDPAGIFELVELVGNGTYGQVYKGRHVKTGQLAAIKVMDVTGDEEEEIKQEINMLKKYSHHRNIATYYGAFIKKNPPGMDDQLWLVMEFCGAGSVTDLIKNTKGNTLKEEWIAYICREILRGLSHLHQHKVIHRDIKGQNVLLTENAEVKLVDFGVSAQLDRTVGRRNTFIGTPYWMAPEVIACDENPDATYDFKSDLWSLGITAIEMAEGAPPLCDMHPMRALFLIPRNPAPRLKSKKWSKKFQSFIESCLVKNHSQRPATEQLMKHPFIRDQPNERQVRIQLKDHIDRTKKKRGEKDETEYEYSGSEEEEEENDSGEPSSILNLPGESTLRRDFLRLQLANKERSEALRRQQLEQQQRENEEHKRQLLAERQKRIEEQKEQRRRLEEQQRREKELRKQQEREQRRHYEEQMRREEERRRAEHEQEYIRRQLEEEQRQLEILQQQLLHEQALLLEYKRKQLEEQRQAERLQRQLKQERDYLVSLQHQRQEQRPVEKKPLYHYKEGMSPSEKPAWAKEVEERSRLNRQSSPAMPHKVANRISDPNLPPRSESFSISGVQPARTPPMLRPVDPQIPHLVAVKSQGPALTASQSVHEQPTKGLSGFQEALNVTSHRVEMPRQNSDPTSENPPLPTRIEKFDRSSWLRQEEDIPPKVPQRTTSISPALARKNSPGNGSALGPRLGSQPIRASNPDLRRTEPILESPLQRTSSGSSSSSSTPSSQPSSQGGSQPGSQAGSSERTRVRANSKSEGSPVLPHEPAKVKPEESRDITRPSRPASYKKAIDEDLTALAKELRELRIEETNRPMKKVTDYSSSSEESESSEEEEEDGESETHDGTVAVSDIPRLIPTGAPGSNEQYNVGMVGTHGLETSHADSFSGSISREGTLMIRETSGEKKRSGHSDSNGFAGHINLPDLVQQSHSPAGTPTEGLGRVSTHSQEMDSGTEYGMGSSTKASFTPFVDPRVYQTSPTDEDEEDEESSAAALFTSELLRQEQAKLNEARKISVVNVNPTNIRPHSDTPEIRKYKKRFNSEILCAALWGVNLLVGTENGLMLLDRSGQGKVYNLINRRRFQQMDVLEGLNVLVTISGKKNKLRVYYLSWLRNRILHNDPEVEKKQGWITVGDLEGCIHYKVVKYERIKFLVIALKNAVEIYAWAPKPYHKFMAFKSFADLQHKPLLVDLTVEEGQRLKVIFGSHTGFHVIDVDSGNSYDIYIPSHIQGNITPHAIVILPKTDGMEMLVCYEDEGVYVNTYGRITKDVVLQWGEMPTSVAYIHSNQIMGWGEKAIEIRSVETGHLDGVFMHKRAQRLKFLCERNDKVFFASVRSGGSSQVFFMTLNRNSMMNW
Sequence of PIK4CB (Q9UBF8 whole entry): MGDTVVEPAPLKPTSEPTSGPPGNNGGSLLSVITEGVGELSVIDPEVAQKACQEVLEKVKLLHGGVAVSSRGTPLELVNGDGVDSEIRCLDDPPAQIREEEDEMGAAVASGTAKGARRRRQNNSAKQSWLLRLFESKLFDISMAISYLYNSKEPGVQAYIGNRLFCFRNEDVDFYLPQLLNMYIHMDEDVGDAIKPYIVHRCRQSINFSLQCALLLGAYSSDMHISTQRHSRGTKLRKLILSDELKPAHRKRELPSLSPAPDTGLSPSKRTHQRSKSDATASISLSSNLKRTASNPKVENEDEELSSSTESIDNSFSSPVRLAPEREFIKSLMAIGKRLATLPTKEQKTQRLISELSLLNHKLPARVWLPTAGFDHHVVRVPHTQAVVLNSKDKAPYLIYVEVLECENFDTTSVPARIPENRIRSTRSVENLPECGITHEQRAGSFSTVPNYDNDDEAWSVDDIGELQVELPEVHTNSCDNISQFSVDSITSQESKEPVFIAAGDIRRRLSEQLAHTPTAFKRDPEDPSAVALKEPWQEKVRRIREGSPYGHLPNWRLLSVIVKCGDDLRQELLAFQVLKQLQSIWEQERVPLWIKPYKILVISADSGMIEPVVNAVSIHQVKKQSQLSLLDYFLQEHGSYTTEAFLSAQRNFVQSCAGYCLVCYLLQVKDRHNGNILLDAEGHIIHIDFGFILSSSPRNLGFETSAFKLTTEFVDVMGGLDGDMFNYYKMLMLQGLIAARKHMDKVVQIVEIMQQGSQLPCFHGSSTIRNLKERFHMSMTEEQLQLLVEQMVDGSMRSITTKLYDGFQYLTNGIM
Sequence of SIK (P57059 whole entry): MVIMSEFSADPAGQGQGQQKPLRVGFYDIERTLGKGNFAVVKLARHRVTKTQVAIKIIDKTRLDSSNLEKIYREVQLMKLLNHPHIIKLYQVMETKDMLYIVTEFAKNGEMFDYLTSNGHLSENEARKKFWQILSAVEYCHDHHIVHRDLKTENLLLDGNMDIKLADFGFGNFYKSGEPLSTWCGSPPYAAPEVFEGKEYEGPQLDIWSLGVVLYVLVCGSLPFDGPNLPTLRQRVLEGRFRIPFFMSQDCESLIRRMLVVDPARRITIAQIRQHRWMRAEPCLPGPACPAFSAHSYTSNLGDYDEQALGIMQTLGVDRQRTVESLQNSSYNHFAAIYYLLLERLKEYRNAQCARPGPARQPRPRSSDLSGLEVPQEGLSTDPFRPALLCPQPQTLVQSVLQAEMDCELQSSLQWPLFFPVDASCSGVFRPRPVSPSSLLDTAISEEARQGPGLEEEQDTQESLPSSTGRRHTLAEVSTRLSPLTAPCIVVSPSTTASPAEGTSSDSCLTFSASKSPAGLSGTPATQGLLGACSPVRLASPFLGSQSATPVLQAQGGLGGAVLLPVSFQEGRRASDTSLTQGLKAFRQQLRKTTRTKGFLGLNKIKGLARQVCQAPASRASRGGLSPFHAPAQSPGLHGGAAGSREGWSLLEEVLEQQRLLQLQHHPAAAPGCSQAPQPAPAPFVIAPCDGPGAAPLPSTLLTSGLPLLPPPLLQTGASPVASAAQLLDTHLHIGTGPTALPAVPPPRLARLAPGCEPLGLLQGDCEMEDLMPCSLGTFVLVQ
T3 sequence (O60674 849-1124 limits assumed): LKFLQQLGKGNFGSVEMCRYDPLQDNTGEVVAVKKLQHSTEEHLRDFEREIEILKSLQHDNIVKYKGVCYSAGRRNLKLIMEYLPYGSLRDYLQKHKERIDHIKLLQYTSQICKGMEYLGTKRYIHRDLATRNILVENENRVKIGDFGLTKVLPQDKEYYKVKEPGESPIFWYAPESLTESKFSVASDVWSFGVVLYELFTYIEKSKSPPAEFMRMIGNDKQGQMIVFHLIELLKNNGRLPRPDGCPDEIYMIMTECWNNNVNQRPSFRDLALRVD
Sequence of PIK3CA(H1047Y) (P42336 whole entry H1047Y): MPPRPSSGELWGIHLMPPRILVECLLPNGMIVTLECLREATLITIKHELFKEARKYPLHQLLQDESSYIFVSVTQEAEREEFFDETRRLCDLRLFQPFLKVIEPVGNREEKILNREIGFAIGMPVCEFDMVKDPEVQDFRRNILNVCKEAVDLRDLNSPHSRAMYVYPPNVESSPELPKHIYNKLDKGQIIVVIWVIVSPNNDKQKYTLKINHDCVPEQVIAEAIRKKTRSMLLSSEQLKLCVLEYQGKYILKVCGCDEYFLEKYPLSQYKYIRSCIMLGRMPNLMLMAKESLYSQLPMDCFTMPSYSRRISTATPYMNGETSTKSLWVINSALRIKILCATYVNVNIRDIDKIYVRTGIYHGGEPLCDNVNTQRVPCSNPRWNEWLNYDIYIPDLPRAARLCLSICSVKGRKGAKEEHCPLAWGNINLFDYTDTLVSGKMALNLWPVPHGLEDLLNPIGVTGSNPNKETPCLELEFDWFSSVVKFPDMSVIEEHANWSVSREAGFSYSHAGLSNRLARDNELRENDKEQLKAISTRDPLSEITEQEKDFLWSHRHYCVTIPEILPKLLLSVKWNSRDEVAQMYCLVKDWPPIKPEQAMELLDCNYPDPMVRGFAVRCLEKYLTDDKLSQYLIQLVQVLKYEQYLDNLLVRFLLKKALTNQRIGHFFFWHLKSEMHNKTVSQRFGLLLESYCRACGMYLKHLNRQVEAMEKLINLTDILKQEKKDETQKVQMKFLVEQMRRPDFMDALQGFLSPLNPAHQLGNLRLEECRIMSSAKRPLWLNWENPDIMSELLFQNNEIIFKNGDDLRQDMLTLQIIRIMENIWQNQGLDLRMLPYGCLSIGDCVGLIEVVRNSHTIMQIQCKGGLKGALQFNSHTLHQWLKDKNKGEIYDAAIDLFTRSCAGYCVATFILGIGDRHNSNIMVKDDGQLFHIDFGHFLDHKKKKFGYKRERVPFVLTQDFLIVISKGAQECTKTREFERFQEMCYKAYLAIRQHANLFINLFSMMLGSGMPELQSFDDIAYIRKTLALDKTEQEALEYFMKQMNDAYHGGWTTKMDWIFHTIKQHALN
T1 sequence (Q9UEE5 whole entry): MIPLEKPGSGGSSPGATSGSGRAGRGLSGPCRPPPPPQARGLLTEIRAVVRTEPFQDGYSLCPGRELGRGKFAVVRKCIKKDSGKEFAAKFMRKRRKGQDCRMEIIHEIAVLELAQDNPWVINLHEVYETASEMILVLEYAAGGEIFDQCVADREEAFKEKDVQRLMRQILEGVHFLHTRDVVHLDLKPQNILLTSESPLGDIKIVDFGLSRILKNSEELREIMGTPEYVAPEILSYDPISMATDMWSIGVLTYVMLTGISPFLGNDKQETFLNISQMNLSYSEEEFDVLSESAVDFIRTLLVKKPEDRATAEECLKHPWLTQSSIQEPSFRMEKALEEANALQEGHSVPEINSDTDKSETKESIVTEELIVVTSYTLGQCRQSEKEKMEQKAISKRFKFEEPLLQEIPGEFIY

`C=CC(=O)Nc1ccc(OC)c(Nc2cc(-c3[nH]c(CC)nc3-c3cccc(NC(=O)c4cccc5c4NC(=O)c4ccccc4N5)c3)ccn2)c1` [Compound 4] was tested, and the POC (EPHA8) was 98% of control, the POC (DRAK1) was 84% of control and the POC (MEK4) was 100% of control. The POC [1] was 80% of control, the POC (PIP5K1A) was 75% of control and the POC [2] was 86% of control. For the same compound, the POC [3] was 84% of control, the POC (TNIK) was 33% of control and the POC (PFPK5(P.falciparum)) was 100% of control. The POC (MEK3) was 100% of control, the POC (ROCK2) was 94% of control and the POC (LRRK2(G2019S)) was 100% of control. The POC (CLK1) was 100% of control, the POC (NEK11) was 100% of control and the POC (CSNK1E) was 88% of control. The POC (PIK3CA(H1047Y)) was 66% of control, the POC (TESK1) was 94% of control and the POC (MRCKA) was 0% of control. For the same compound, the POC (LATS1) was 100% of control, the POC (BLK) was 1.7% of control and the POC (BMPR1B) was 100% of control. The POC (CDK4) was 100% of control, the POC (CDK9) was 100% of control and the POC (PKAC-alpha) was 100% of control. The POC (MAP3K3) was 51% of control, the POC (TLK2) was 87% of control and the POC (ADCK3) was 100% of control. The POC (SGK3) was 90% of control, the POC (MEK6) was 73% of control and the POC (NEK7) was 86% of control. For the same compound, the POC (PIK4CB) was 93% of control, the POC (EGFR(G719S)) was 13% of control and the POC (PAK7) was 77% of control. The POC (MAST1) was 100% of control, the POC (PKN1) was 88% of control and the POC (PFTAIRE2) was 84% of control. For the same compound, the POC (CAMK1D) was 100% of control, the POC (SIK) was 100% of control and the POC [4] was 98% of control.

— article PMC10879502, “Linking ATP and allosteric sites to achieve superadditive binding with bivalent EGFR kinase inhibitors” (Communications Chemistry, 2024)
